We go through 16 compounds from PMC7215599, “Synthesis, Antitumor Evaluation, Molecular Modeling and Quantitative Structure–Activity Relationship (QSAR) of Novel 2-[(4-Amino-6-N-substituted-1,3,5-triazin-2-yl)methylthio]-4-chloro-5-methyl-N-(1H-benzo[d]imidazol-2(3H)-ylidene)Benzenesulfonamides” (International Journal of Molecular Sciences, 2020).

The subject of assay [1] is MCF-7 (breast cancer) cell line. The assay can be described thus: MTT cell viability assay, MCF-7. The conditions noted are these: MTT, 72 h, 1-100 µM, mean ± SD. Type of assay: cell-based, human. The procedure:
(§1) Compounds 6–49 were evaluated in vitro for their effects on the viability of the three human cancer cell lines: HCT-116 (colon cancer), MCF-7 (breast cancer) and HeLa (cervical cancer) as well as the non-cancerous keratinocyte cell line (HaCaT). The concentration required for 50% inhibition of cell viability IC50 was calculated and compared with the reference drug cisplatin, the results are shown in Table 1.
(§2) Cell lines: colon cancer (HCT-116), breast cancer (MCF-7), cervical cancer (HeLa), the human keratinocyte cell line (HaCaT); NT—not tested; IC50 was measured at concentrations 1, 10, 25, 50, and 100 µM. IC50 values are expressed as the mean ± SD of at last three independent experiments.
(§3) All chemicals, if not stated otherwise, were obtained from Sigma–Aldrich (St. Louis, MO, USA). The HCT-116 cell lines was purchased from ATCC (ATCC-No: CCL-247), while the MCF-7, HeLa and HaCaT cell lines were purchased from Cell Lines Services (Eppelheim, Germany). Cells were cultured in Dulbecco’s modified Eagle’s medium (DMEM) supplemented with 10% fetal bovine serum, 2 mM glutamine, 100 units/mL penicillin, and 100 µg/mL streptomycin. Cultures were maintained in a humidified atmosphere with 5% carbon dioxide at 37 °C in an incubator (Heraceus, HeraCell).
(§4) Cell viability was examined using the MTT (3-(4,5-dimethylthiazol-2-yl)-2,5-diphenyltetrazolium bromide) assay. Cells were seeded in 96-well plates at a density of 5 × 10^3 cells/well and treated for 72 h with the tested compounds in the concentration range of 1–100 µM (1, 10, 25, 50 and 100 µM). Then, MTT (0.5 mg/mL) was added to the medium and cells were further incubated for 2 h at 37 °C. In the next stage, cells were lysed with DMSO and the absorbance of the formazan solution was measured at 550 nm with a plate reader (1420 multilabel counter, Victor, Jügesheim, Germany). The experiment was performed in triplicate. Values are expressed as the mean ± SD of at least three independent experiments. Cisplatin was used as a positive control.
In general terms: Tetrazolium dyes change colour on reduction, which living cells bring about.

Assay [2] deals with HCT-116 (colon cancer) cell line. The assay can be described thus: MTT cell viability assay, HCT-116. It counts as cell-based, human. The conditions noted are these: Homo sapiens, HCT-116, 72 h, MTT, 72 h, 1-100 µM, mean ± SD. The method, then: as §1, §2, §3, §4
Assay [3] relates to HaCaT (non-cancerous keratinocyte cell line). The assay can be described thus: MTT cell viability assay, HaCaT. It counts as cell-based. The conditions noted are these: Homo sapiens, 72 h, 1-100 µM, mean ± SD, non-cancerous cells. The procedure:
as §1, §2, §3, §4

Assay [4] has as its system HeLa (cervical cancer) cell line. The assay can be described thus: MTT cell viability assay, HeLa. It counts as cell-based, human. Particulars: 72 h, MTT, 1-100 µM, mean ± SD. The method, then:
as §1, §2, §3, §4

Regarding `Cc1cc(S(=O)(=O)N=c2[nH]c3ccccc3[nH]2)c(SCc2nc(N)nc(N3CCN(c4ccc(Cl)c(Cl)c4)CC3)n2)cc1Cl` [Compound 25, 2-[{4-Amino-6-[4-(3,4-dichlorophenyl)piperazin-1-yl]-1,3,5-triazin-2-yl}metylthio]-N-(1H-benzo[d]imidazol-2(3H)-ylidene)-4-chloro-5-methylbenzenesulfonamide], the half-inhibitory concentration (IC50) – broadly, the point on the concentration scale where inhibition reaches its midpoint – worked out at 46 ± 2 µM in assay [1] (Homo sapiens, MCF7, 72 h); 16 ± 1 µM in assay [2]; 52 ± 2 µM in assay [3]; 28 ± 1 µM in assay [4] (Homo sapiens, HeLa).
The matching figures for `Cc1cc(S(=O)(=O)N=c2[nH]c3ccccc3[nH]2)c(SCc2nc(N)nc(N3CCN(c4ccc(F)c(Cl)c4)CC3)n2)cc1Cl` [Compound 26, 2-[{4-Amino-6-[4-(3-chloro-4-fluorophenyl)piperazin-1-yl]-1,3,5-triazin-2-yl}methylthio]-N-(1H-benzo[d]imidazol-2(3H)-ylidene)-4-chloro-5-methylbenzenesulfonamide]: 20 ± 1 µM, 17 ± 0.5 µM, 35 ± 1 µM and 21 ± 0.4 µM.
As to `COc1ccc(N2CCN(c3nc(N)nc(CSc4cc(Cl)c(C)cc4S(=O)(=O)N=c4[nH]c5ccccc5[nH]4)n3)CC2)cc1` [Compound 27, 2-[{4-Amino-6-[4-(4-methoxyphenyl)piperazin-1-yl]-1,3,5-triazin-2-yl}metylthio]-N-(1H-benzo[d]imidazol-2(3H)-ylidene)-4-chloro-5-methylbenzenesulfonamide], the IC50 was > 100 µM in assay [1] (Homo sapiens, MCF7, 72 h); 110 ± 3 µM in assay [1]; 35 ± 1 µM in assay [2]; 98 ± 2 µM in assay [3]; > 100 µM in assay [4] (Homo sapiens, HeLa); 74 ± 1 µM in assay [4].
With `COc1ccccc1N1CCN(c2nc(N)nc(CSc3cc(Cl)c(C)cc3S(=O)(=O)N=c3[nH]c4ccccc4[nH]3)n2)CC1` [Compound 28, 2-[{4-Amino-6-[4-(2-methoxyphenyl)piperazin-1-yl]-1,3,5-triazin-2-yl}metylthio]-N-(1H-benzo[d]imidazol-2(3H)-ylidene)-4-chloro-5-methylbenzenesulfonamide], the IC50 in assay [1] (Homo sapiens, MCF7, 72 h) is 24 ± 1 µM; in assay [2], 16 ± 1 µM; in assay [3], 35 ± 1 µM; in assay [4] (Homo sapiens, HeLa), 24 ± 1 µM.
Take `Cc1cc(S(=O)(=O)N=c2[nH]c3ccccc3[nH]2)c(SCc2nc(N)nc(N3CCN(Cc4ccccc4)CC3)n2)cc1Cl` [Compound 30, 2-{[4-Amino-6-(4-benzylpiperazin-1-yl)-1,3,5-triazin-2-yl]methylthio}-N-(1H-benzo[d]imidazol-2(3H)-ylidene)-4-chloro-5-methylbenzenesulfonamide]: the IC50 came out at 24 ± 1 µM in assay [1] (Homo sapiens, MCF7, 72 h); 17 ± 0.5 µM in assay [2]; 36 ± 2 µM in assay [3]; 18 ± 1 µM in assay [4] (Homo sapiens, HeLa).
For `Cc1cc(S(=O)(=O)N=c2[nH]c3ccccc3[nH]2)c(SCc2nc(N)nc(N3CCN(C(c4ccccc4)c4ccccc4)CC3)n2)cc1Cl` [Compound 31] the same measures were 46 ± 2 µM, 18 ± 1 µM, 54 ± 2 µM and 39 ± 1 µM.
The matching figures for `CC1=NN(c2nc(N)nc(CSc3cc(Cl)c(C)cc3S(=O)(=O)N=c3[nH]c4ccc(F)cc4[nH]3)n2)C(C)(C)C1` [Compound 33, 2-{[4-Amino-6-(3,5,5-trimethyl-4,5-dihydro-1H-pyrazol-1-yl)-1,3,5-triazin-2-yl]metylthio}-4-chloro-N-(5-fluoro-1H-benzo[d]imidazol-2(3H)-ylidene)-5-methylbenzenesulfonamide]: 35 ± 2 µM, 19 ± 1 µM, 48 ± 2 µM and 30 ± 2 µM.
For the compound `Cc1cc(S(=O)(=O)N=c2[nH]c3ccc(F)cc3[nH]2)c(SCc2nc(N)nc(Nc3cccc(Cl)c3)n2)cc1Cl` [Compound 35, 2-[{4-Amino-6-[(3-chlorophenyl)amino]-1,3,5-triazin-2-yl}methylthio]-4-chloro-N-(5-fluoro-1H-benzo[d]imidazol-2(3H)-ylidene)-5-methylbenzenesulfonamide], the IC50 in assay [1] (Homo sapiens, MCF7, 72 h) was determined as 40 ± 1 µM; in assay [2] it was 37 ± 1 µM; in assay [3], 52 ± 2 µM; in assay [4] (Homo sapiens, HeLa), 39 ± 1 µM.
The matching figures for `Cc1cc(S(=O)(=O)N=c2[nH]c3ccc(F)cc3[nH]2)c(SCc2nc(N)nc(N(C)c3ccc(Cl)cc3)n2)cc1Cl` [Compound 36, 2-[{4-Amino-6-[(4-chlorophenyl)(methyl)amino]-1,3,5-triazin-2-yl}metylthio]-4-chloro-N-(5-fluoro-1H-benzo[d]imidazol-2(3H)-ylidene)-5-methylbenzenesulfonamide]: 37 ± 2 µM, 18 ± 0.5 µM, 49 ± 1 µM and 29 ± 1 µM.
For the compound `Cc1cc(S(=O)(=O)N=c2[nH]c3ccc(F)cc3[nH]2)c(SCc2nc(N)nc(N3CCN(c4ccccc4)CC3)n2)cc1Cl` [Compound 37, 2-[{[4-Amino-6-(4-phenylpiperazin-1-yl)-1,3,5-triazin-2-yl]methyl}thio]-4-chloro-N-(5-fluoro-1H-benzo[d]imidazol-2(3H)-ylidene)-5-methylbenzenesulfonamide], the IC50 turned out to be 27 ± 2 µM in assay [1] (Homo sapiens, MCF7, 72 h); 17 ± 1 µM in assay [2]; 39 ± 1 µM in assay [3]; 20 ± 1 µM in assay [4] (Homo sapiens, HeLa).
The matching figures for `Cc1cc(S(=O)(=O)N=c2[nH]c3ccc(F)cc3[nH]2)c(SCc2nc(N)nc(N3CCN(c4ccc(F)cc4)CC3)n2)cc1Cl` [Compound 38, 2-[{4-Amino-6-[4-(4-fluorophenyl)piperazin-1-yl]-1,3,5-triazin-2-yl}metylthio]-4-chloro-N-(5-fluoro-1H-benzo[d]imidazol-2(3H)-ylidene)-5-methylbenzenesulfonamide]: 24 ± 1 µM, 14 ± 1 µM, 38 ± 2 µM and 18 ± 1 µM.
As to `Cc1cc(S(=O)(=O)N=c2[nH]c3ccc(F)cc3[nH]2)c(SCc2nc(N)nc(N3CCN(c4ccc(Cl)cc4)CC3)n2)cc1Cl` [Compound 39, 2-[{4-Amino-6-[4-(4-chlorophenyl)piperazin-1-yl]-1,3,5-triazin-2-yl}metylthio]-4-chloro-N-(5-fluoro-1H-benzo[d]imidazol-2(3H)-ylidene)-5-methylbenzenesulfonamide], the IC50 is > 100 µM in assay [1] (Homo sapiens, MCF7, 72 h); 74 ± 2 µM in assay [1]; 35 ± 2 µM in assay [2]; 76 ± 2 µM in assay [3]; 28 ± 2 µM in assay [4] (Homo sapiens, HeLa).
In the case of `Cc1cc(S(=O)(=O)N=c2[nH]c3ccc(F)cc3[nH]2)c(SCc2nc(N)nc(N3CCN(c4ccc(Cl)c(Cl)c4)CC3)n2)cc1Cl` [Compound 40, 2-[{4-Amino-6-[4-(3,4-dichlorophenyl)piperazin-1-yl]-1,3,5-triazin-2-yl}metylthio]-4-chloro-N-(5-fluoro-1H-benzo[d]imidazol-2(3H)-ylidene)-5-methylbenzenesulfonamide], the IC50 in assay [1] (Homo sapiens, MCF7, 72 h) is 43 ± 1 µM; in assay [2], 16 ± 1 µM; in assay [3], 46 ± 1 µM; in assay [4] (Homo sapiens, HeLa), 18 ± 1 µM.
For `CC1=NN(c2nc(N)nc(CSc3cc(Cl)c(C)cc3S(=O)(=O)N=c3[nH]c4ccc(Cl)cc4[nH]3)n2)C(C)(C)C1` [Compound 41, 2-{[4-Amino-6-(3,5,5-trimethyl-4,5-dihydro-1H-pyrazol-1-yl)-1,3,5-triazin-2-yl]metylthio}-4-chloro-N-(5-chloro-1H-benzo[d]imidazol-2(3H)-ylidene)-5-methylbenzenesulfonamide] the same measures were 38 ± 2 µM, 25 ± 1 µM, 49 ± 1 µM and 30 ± 1 µM.
The matching figures for `Cc1cc(S(=O)(=O)N=c2[nH]c3ccc(Cl)cc3[nH]2)c(SCc2nc(N)nc(Nc3ccc(F)cc3)n2)cc1Cl` [Compound 43, 2-[{4-Amino-6-[(4-fluorophenyl)amino]-1,3,5-triazin-2-yl}methylthio]-4-chloro-N-(5-chloro-1H-benzo[d]imidazol-2(3H)-ylidene)-5-methylbenzenesulfonamide]: 44 ± 2 µM, 43 ± 1 µM, 55 ± 2 µM and 45 ± 2 µM.
The matching figures for `COc1ccc(Nc2nc(N)nc(CSc3cc(Cl)c(C)cc3S(=O)(=O)N=c3[nH]c4ccc(Cl)cc4[nH]3)n2)cc1` [Compound 44, 2-[{4-Amino-6-[(4-methoxyphenyl)amino]-1,3,5-triazin-2-yl}methylthio]-4-chloro-N-(5-chloro-1H-benzo[d]imidazol-2(3H)-ylidene)-5-methylbenzenesulfonamide]: 47 ± 2 µM, 48 ± 1 µM, 61 ± 2 µM and 50 ± 2 µM.
